# In PMC9928118, “Funneling modulatory peptide design with generative models: Discovery and characterization of disruptors of calcineurin protein-protein interactions” (PLOS Computational Biology, 2023):
# Test system: GST-tagged Cn
# Test: PEPperPRINT peptide microarray binding assay with GST-tagged Cn
# Procedure, shortened: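 Qualitative binding: peptides printed on a PEPperPRINT microarray were incubated overnight at 4 °C with 1 mg/ml GST-tagged Cn, then detected with Alexa-Fluor 647 anti-GST antibody. Log fluorescence was baseline-corrected, averaged over duplicate spots, Z-normalized and averaged across five repeats.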
# [1] = max over the spots listed under Location on chip
# [2] = mean over the spots listed under Location on chip
# [3] = max over the chip locations listed for the peptide (two spots)
# [4] = mean over the chip locations listed for the peptide (two spots)
# [5] = GST-tagged Cn, max over the spots named in Location on chip
# [6] = GST-tagged Cn, mean over the spots named in Location on chip
# [7] = GST-tagged Cn, max over the spots on the chip (two locations)
# [8] = GST-tagged Cn, mean over the spots on the chip (two locations)
# [9] = GST-tagged Cn, max over the chip spots listed under Location on chip
# [10] = GST-tagged Cn, mean over the chip spots listed under Location on chip
# [11] = GST-tagged Cn, max over the chip locations
# [12] = GST-tagged Cn, mean over the chip locations
sequence,measurement,setting,value
PGDDQPGIIVHPCEEP [SeqRBMlowT_1949],Chip Fluorescence (max),[1],2.883
same,Chip Fluorescence (mean),[2],1.506
PGLYDNALGIEQFTLS [SeqRBMlowT_2874],Chip Fluorescence (max),[3],13.8972
same,Chip Fluorescence (mean),[4],1.628
PGLYDNALGIESFTLS [SeqRBMlowT_2801],Chip Fluorescence (max),[5],1.445
same,Chip Fluorescence (mean),[6],0.04021
PGLYDNALGMESFTLS [SeqRBMlowT_2805],Chip Fluorescence (max),[7],1.201
same,Chip Fluorescence (mean),[8],0.8541
PGLYENALGMESFSIS [SeqCRZ1_Ajellomyces_capsulatus],Chip Fluorescence (max),[5],1.795
same,Chip Fluorescence (mean),[6],0.6954
PKEDLPVITIDPASPQ [SeqNHE1_Pan_troglodytes],Chip Fluorescence (max),[9],0.9606
same,Chip Fluorescence (mean),[10],-0.5019
PKMAPPAINIDFAPTN [SeqRBMlowT_1805],Chip Fluorescence (max),[1],2.636
same,Chip Fluorescence (mean),[2],-0.01431
PKMAPPCINIDFAPTN [SeqRBMlowT_319],Chip Fluorescence (max),[7],1.2058
same,Chip Fluorescence (mean),[8],-0.8596
PLGTQPGIVVHVCELN [SeqRBMlowT_356],Chip Fluorescence (max),[3],4.334
same,Chip Fluorescence (mean),[4],3.231
PMLVFRALRIHESPLP [Seqshuffled_9670],Chip Fluorescence (max),[9],0.8908
same,Chip Fluorescence (mean),[10],0.2837
PMMAVPSISSDVSNAP [SeqRBM_5566],Chip Fluorescence (max),[5],1.398
same,Chip Fluorescence (mean),[6],0.7603
PNLYENTLGIEQFTLS [SeqRBM_7749],Chip Fluorescence (max),[5],1.865
same,Chip Fluorescence (mean),[6],0.2079
PPPGTPTRIGQHMAPS [SeqRBM_7926],Chip Fluorescence (max),[11],-0.5504
same,Chip Fluorescence (mean),[12],-1.127
PQLYQNVLGIGSFSLS [SeqRBMlowT_4804],Chip Fluorescence (max),[9],0.4517
same,Chip Fluorescence (mean),[10],-0.7977
PQMAPPAINIDFAPTN [SeqRBMlowT_2475],Chip Fluorescence (max),[5],1.458
same,Chip Fluorescence (mean),[6],-0.38
PQPSVQSAEFMEFVGH [Seqshuffled_8788],Chip Fluorescence (max),[5],1.4183
same,Chip Fluorescence (mean),[6],0.4268
PSALIPSLSMDPSMSE [SeqRBM_6067],Chip Fluorescence (max),[3],4.106
same,Chip Fluorescence (mean),[4],0.6019
PSDDQPGIIVHPAEED [SeqRBMlowT_1217],Chip Fluorescence (max),[1],2.878
same,Chip Fluorescence (mean),[2],-0.2496
PSDDQPGIVVHPCEED [SeqRBMlowT_365],Chip Fluorescence (max),[5],1.806
same,Chip Fluorescence (mean),[6],0.4598
PSDPQPSIIVHACLED [SeqRBM_9284],Chip Fluorescence (max),[1],3.302
same,Chip Fluorescence (mean),[2],0.8695
PSEDQPGIVVHVCEED [SeqRBMlowT_124],Chip Fluorescence (max),[3],4.395
same,Chip Fluorescence (mean),[4],0.1564
PSEDQPGIVVHVCEEG [SeqRBMlowT_361],Chip Fluorescence (max),[3],3.843
same,Chip Fluorescence (mean),[4],0.9779
PSLFPDALGLGQFSLS [SeqCRZ1_Aureobasidium_pullulans],Chip Fluorescence (max),[7],1.272
same,Chip Fluorescence (mean),[8],0.42
PSLYENALGIESFTLS [SeqRBMlowT_6913],Chip Fluorescence (max),[1],2.963
same,Chip Fluorescence (mean),[2],0.4149
PSLYENALGMEAFTIS [SeqRBMlowT_4846],Chip Fluorescence (max),[5],1.442
same,Chip Fluorescence (mean),[6],0.7319
PSMAAPAINIDFAPTN [SeqRBMlowT_2463],Chip Fluorescence (max),[9],0.9672
same,Chip Fluorescence (mean),[10],0.03589
PSMYQPHIIVKVAETE [SeqRBM_4049],Chip Fluorescence (max),[7],1.118
same,Chip Fluorescence (mean),[8],0.1884
PSPDQPGIVVHTCEDD [SeqRBMlowT_9795],Chip Fluorescence (max),[9],0.973
same,Chip Fluorescence (mean),[10],0.3644
PSSCTPHLYARVHKGQ [SeqRBM_1451],Chip Fluorescence (max),[11],0.2872
same,Chip Fluorescence (mean),[12],-1.296
PVHTIHRVSLQDAGKY [SeqCEACAM5_Aedes_aegypti],Chip Fluorescence (max),[9],0.8319
same,Chip Fluorescence (mean),[10],-0.7144
QAIYQDILGIGAFSGS [SeqRBM_285],Chip Fluorescence (max),[7],1.266
same,Chip Fluorescence (mean),[8],-0.8575
QASKNSNMQRSFHVNA [Seqshuffled_9426],Chip Fluorescence (max),[9],0.8318
same,Chip Fluorescence (mean),[10],-0.05808
QAVMCTAMSWCDCGQR [SeqRBM_6860],Chip Fluorescence (max),[7],1.273
same,Chip Fluorescence (mean),[8],0.6916
QELFISNITVDHSGSY [SeqCEACAM5_Aotus_nancymaae],Chip Fluorescence (max),[3],6.254
same,Chip Fluorescence (mean),[4],1.438
QFKKSNLLGFMAASGD [Seqshuffled_9600],Chip Fluorescence (max),[7],0.9897
same,Chip Fluorescence (mean),[8],0.1872
QGIYQDLGGINNFSIS [SeqCRZ1_Pseudogymnoascus_sp],Chip Fluorescence (max),[11],-0.4093
same,Chip Fluorescence (mean),[12],-1.098
QGLYENVLGMEAFSVS [SeqRBM_7629],Chip Fluorescence (max),[9],0.8552
same,Chip Fluorescence (mean),[10],0.1691
QGYKNPSAQFEPIGTK [SeqRBM_6874],Chip Fluorescence (max),[11],-0.3081
same,Chip Fluorescence (mean),[12],-1.163
QHMSVPKIQVTPTEIE [SeqRBM_9954],Chip Fluorescence (max),[3],4.025
same,Chip Fluorescence (mean),[4],2.718
QKRYGETFPPVKTGSD [Seqshuffled_1489],Chip Fluorescence (max),[7],1.242
same,Chip Fluorescence (mean),[8],-0.2303
QLLAVPALSVDRKGPK [SeqCACUL1_Dipodomys_ordii],Chip Fluorescence (max),[7],1.085
same,Chip Fluorescence (mean),[8],-0.04024
QLRDIFQGRMITILTP [Seqshuffled_3466],Chip Fluorescence (max),[9],0.7348
same,Chip Fluorescence (mean),[10],-0.3913
QPPQNPVATVSTAHHQ [SeqRBM_6519],Chip Fluorescence (max),[5],1.708
same,Chip Fluorescence (mean),[6],-0.008148
QRFFCVRYDVNPCINW [Seqrandom_9944],Chip Fluorescence (max),[3],3.709
same,Chip Fluorescence (mean),[4],0.2678
QSNSTPTITITPPSDA [SeqRBM_9156],Chip Fluorescence (max),[3],7.93
same,Chip Fluorescence (mean),[4],2.436
QSQSNPEITVTPPETE [SeqRIPOR2_Austrofundulus_limnaeus],Chip Fluorescence (max),[3],10.3742
same,Chip Fluorescence (mean),[4],0.3512
QSRSCSHPNRSPERVT [SeqRBM_5791],Chip Fluorescence (max),[11],-0.7515
same,Chip Fluorescence (mean),[12],-1.165
QTEDQPGIIVHTAMLP [SeqRCN1_Bactrocera_dorsalis],Chip Fluorescence (max),[9],0.5479
same,Chip Fluorescence (mean),[10],-0.783
QTSCLPFPVVNSQEGQ [SeqRBM_2540],Chip Fluorescence (max),[7],1.036
same,Chip Fluorescence (mean),[8],-0.9088
QYAYNSQMMGITTQLQ [Seqshuffled_9335],Chip Fluorescence (max),[9],0.8878
same,Chip Fluorescence (mean),[10],-0.5817
RAMRILKCCPHPAAWN [Seqrandom_9981],Chip Fluorescence (max),[7],1.034
same,Chip Fluorescence (mean),[8],0.3693
RAYINPFMMFRSGGNK [SeqSFB3_Cordyceps_militaris],Chip Fluorescence (max),[9],0.6899
same,Chip Fluorescence (mean),[10],-0.6148
RAYINPFMQFIDGGRF [SeqRBMlowT_3663],Chip Fluorescence (max),[9],0.6841
same,Chip Fluorescence (mean),[10],-0.1666
RAYINPFMQFIDGGRK [SeqRBMlowT_4070],Chip Fluorescence (max),[3],3.668
same,Chip Fluorescence (mean),[4],2.003
RAYINPFMQFIDGGRR [SeqRBMlowT_1520],Chip Fluorescence (max),[5],1.802
same,Chip Fluorescence (mean),[6],-0.3387
RAYINPFMQFNDGGSR [SeqRBM_9542],Chip Fluorescence (max),[7],1.138
same,Chip Fluorescence (mean),[8],0.2992
RAYINPFMQFQDGGQR [SeqRBMlowT_1515],Chip Fluorescence (max),[5],1.533
same,Chip Fluorescence (mean),[6],-0.1627
RAYINPFMQFQIGGNH [SeqRBMlowT_4074],Chip Fluorescence (max),[1],2.865
same,Chip Fluorescence (mean),[2],0.3097
RAYINPFMQFTDDGRR [SeqRBMlowT_7881],Chip Fluorescence (max),[9],0.7684
same,Chip Fluorescence (mean),[10],-0.05563
RAYINPFMQFTDGGRR [SeqRBMlowT_4069],Chip Fluorescence (max),[7],1.3045
same,Chip Fluorescence (mean),[8],0.5135
RAYINPFMTFIDGGHR [SeqRBMlowT_1519],Chip Fluorescence (max),[3],3.708
same,Chip Fluorescence (mean),[4],0.9074
RAYINPFMTFTDGGRR [SeqRBMlowT_3400],Chip Fluorescence (max),[1],3.064
same,Chip Fluorescence (mean),[2],0.978
RAYINPHMFFKFDGHK [SeqRBM_1639],Chip Fluorescence (max),[9],0.9031
same,Chip Fluorescence (mean),[10],0.1441
RAYMNPFMTFIDGGHR [SeqRBMlowT_1518],Chip Fluorescence (max),[5],1.378
same,Chip Fluorescence (mean),[6],0.8819
RCISAYKLDSVMMDPS [Seqrandom_9957],Chip Fluorescence (max),[3],3.463
same,Chip Fluorescence (mean),[4],0.1448
REPGVPPLELKGHLSL [SeqRBM_7171],Chip Fluorescence (max),[5],1.816
same,Chip Fluorescence (mean),[6],0.8874
REYINPKMHFHFLNTV [SeqRBM_9087],Chip Fluorescence (max),[5],1.764
same,Chip Fluorescence (mean),[6],-0.3424
RFRTELSFGFTGFGTD [Seqshuffled_9528],Chip Fluorescence (max),[9],0.42
same,Chip Fluorescence (mean),[10],-0.6398
RKDSAVTQWGFSNLWA [Seqrandom_9950],Chip Fluorescence (max),[3],4.744
same,Chip Fluorescence (mean),[4],1.033
RLFSVCEQEEEIERAP [Seqshuffled_9643],Chip Fluorescence (max),[3],4.044
same,Chip Fluorescence (mean),[4],1.1677
RMMEPQNRGFKGCTES [Seqshuffled_509],Chip Fluorescence (max),[3],6.671
same,Chip Fluorescence (mean),[4],1.748
RNPERPKLHLQGHLVA [SeqRBM_9016],Chip Fluorescence (max),[7],1.316
same,Chip Fluorescence (mean),[8],-0.7354
RNPESPSLFLEGHLSR [SeqRBMlowT_8778],Chip Fluorescence (max),[1],3.012
same,Chip Fluorescence (mean),[2],0.475
RNPGIALLSLRGHKAQ [SeqRBMlowT_8792],Chip Fluorescence (max),[7],1.2142
same,Chip Fluorescence (mean),[8],0.3008
RNPGQALLELKGHSAQ [SeqRBMlowT_7734],Chip Fluorescence (max),[7],1.17
same,Chip Fluorescence (mean),[8],-0.1022
RNPGQALLELRGHSAS [SeqRBMlowT_6125],Chip Fluorescence (max),[9],0.4069
same,Chip Fluorescence (mean),[10],-0.3301
RNPGQALLQLSGHKAP [SeqRBM_8761],Chip Fluorescence (max),[11],0.09132
same,Chip Fluorescence (mean),[12],-0.8885
